This note sets out measurements from patent US8389541B2, “Inhibitors of protein tyrosine kinase activity” (MethylGene Inc., priority 2007, dated 2013).

A word on the IC50: it is the midpoint of a concentration-inhibition curve.

Assay [1] has as its system DU145 cells. As to the kind of experiment: Scatter assay in DU145 cells (HGF-stimulated). Format: cell-based. To be noted: Homo sapiens, DU-145, last dose that created an inhibitory effect on scattering, 24 h, read-out: DU145 SCATT. INHIB IC50. On the procedure: Scatter assays in DU145. The scatter assay is performed as described previously (Miura H, Nishimura K, Tsujimura A, Matsumiya K, Matsumoto K, Nakamura T, et al. Effects of hepatocyte growth factor on E-cadherin-mediated cell-cell adhesion in DU145 prostate cancer cells. Urology 2001; 58(6):1064-9) for DU145 prostate carcinoma cells with the indicated modifications. In brief, DU145 cells (ATCC) are seeded in 24-well plates at a density of 7×10^3 cells/well in MEM medium complemented with 10% FBS and cultured for 48 h, to allow the formation of small compact colonies of cells. Inhibitors are subsequently added at a range of doses (0.00032-10 uM) for 3 h. Cells are then stimulated to migrate by the addition of HGF (in the form of conditioned medium from 293T cells over-expressing the human HGF gene) and the culture is continued for another 24 h. The IC50 values is defined as the last dose that created an inhibitory effect on scattering. For the purpose of standardization a control is carried on every test plates for the DU145 scattering assays.

In assay [2] the target is T1, VEGF receptor KDR (Homo sapiens, UniProt P35968).
T1 construct: made in house; host or cells: Sf9 cells (Spodoptera frugiperda), baculovirus
T1 sequence (P35968 806-1356): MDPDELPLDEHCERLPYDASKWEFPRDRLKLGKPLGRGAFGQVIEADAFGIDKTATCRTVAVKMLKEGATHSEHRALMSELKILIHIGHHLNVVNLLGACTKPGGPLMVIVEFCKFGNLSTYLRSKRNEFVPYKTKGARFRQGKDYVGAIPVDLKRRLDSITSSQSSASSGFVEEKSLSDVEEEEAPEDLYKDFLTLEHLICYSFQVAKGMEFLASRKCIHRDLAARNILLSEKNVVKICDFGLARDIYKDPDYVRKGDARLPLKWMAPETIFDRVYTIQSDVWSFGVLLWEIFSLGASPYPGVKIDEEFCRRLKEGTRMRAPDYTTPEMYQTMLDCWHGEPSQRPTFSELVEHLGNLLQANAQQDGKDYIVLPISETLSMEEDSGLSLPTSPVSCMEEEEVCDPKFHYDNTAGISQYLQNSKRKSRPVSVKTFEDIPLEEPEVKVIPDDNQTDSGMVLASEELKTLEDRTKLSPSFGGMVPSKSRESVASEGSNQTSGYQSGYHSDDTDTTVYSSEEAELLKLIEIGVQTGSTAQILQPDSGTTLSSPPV
As to the kind of experiment: In vitro receptor tyrosine kinase assay (DELFIA), VEGF receptor KDR. Format: biochemical. Conditions: GST-VEGFR2 806-1356, 0.6 uM ATP; read-out: VEGFR IC50. The text has this: In the case of VEGF receptor KDR a 1.6-kb cDNA corresponding to the catalytic domain of VEGFR2 or KDR (Genbank accession number AF035121 amino acid 806 to 1356) is cloned into the Pst I site of the pDEST20 Gateway vector (Invitrogen) for the production of a GST-tagged version of that enzyme.
The GST-VEGFR2806-1356 protein is expressed in Sf9 cells (Spodoptera frugiperda) upon infection with recombinant baculovirus construct.
The supernatant is loaded onto a GST-agarose column (Sigma) equilibrated with PBS pH 7.3. Following a four column volume (CV) wash with PBS pH 7.3+1% Triton X-100 and 4 CV wash with buffer B (50 mM Tris pH 8.0, 20% glycerol and 100 mM NaCl), bound proteins are step eluted with 5 CV of buffer B supplemented with 5 mM DTT and 15 mM glutathion. […] Final GST-VEGFR2806-1356 protein preparations concentrations are about 0.7 mg/ml with purity approximating 70%.

Assay [3] has as its target recombinant human c-Met/HGF receptor (Homo sapiens, UniProt P08581). In words: In vitro receptor tyrosine kinase assay (DELFIA), c-Met/HGF receptor.
Assay [4] has as its target T2, c-Met (Homo sapiens, UniProt P08581).
T2 construct: endogenous in cells; host or cells: MKN45 gastric carcinoma cells
As to the kind of experiment: Inhibition of c-Met phosphorylation in MKN45 cells (direct ELISA). Conditions: 3 h treatment, read-out: CMET ELISA IN MKN45 IC50. The assay is classed as cell-based. The text has this: The following assay is used to determine inhibition of c-Met phosphorylation.
The c-Met receptor is expressed in numerous cancer cell lines derived from tumors of epithelial origin. In MKN45 gastric carcinoma cells the c-Met gene is amplified, resulting in several-fold overexpression of the receptor and its constitutive activation. For this reason constitutively high levels of ERK1/2 are also detected in these cells, independently of HGF-added stimulation (Smolen G A, Sordella R, Muir B, Mohapatra G, Barmettler A, Archibald H, et al. Amplification of MET may identify a subset of cancers with extreme sensitivity to the selective tyrosine kinase inhibitor PHA-665752. Proc Natl Acad Sci USA 2006). We have developed a sensitive method to follow c-Met phosphorylation in these cells. In previous studies with earlier generation c-Met inhibitors, we established that the IC50s for the inhibition of c-Met phosphorylation were identical using this novel ELISA approach and standard western blot procedure, with antibodies directed against the activating autocatalysis tyrosine residues of c-MET (Tyr Y1230-34-35).
Cell treatments: MKN45 cells are seeded into wells of 96-well plates at a density of 3×10^4 cells/well in RPMI medium supplemented with 10% FBS. HA-TPR-RON expressing 293T (clone 18) cells are seeded into wells of 96-well plates at a density of 3×10^4 cells/well in DMEM medium supplemented with 10% FBS. Cells are grown for 48 h prior to treatments with compounds of interest. Inhibitors are added to the medium in triplicate wells at the indicated doses. After 3 h of treatment, media is aspirated and cells are lysed by one freeze-thaw cycle in 50 μL/well hypotonic lysis buffer (25 mM HEPES pH 7.5, 10 mM NaCl with 1 mM 4-(2-aminoethyl)benzenesulfonyl fluoride hydrochloride, 200 μM sodium orthovanadate, 1 mM sodium fluoride, 10 μg/mL of leupeptin, 10 μg/mL of aprotinin/mL, 1 μg/mL of pepstatin and 50 μg/mL Na-p-tosyl-L-lysine chloromethyl ketone hydrochloride.
Detection of phosphorylated c-Met by direct ELISA: Lysate samples (5 μL) from wells of treatment plates are transferred to 80 μL of binding buffer (25 mM HEPES pH 7.5, 200 mM NaCl) in wells of high binding white polysterene 96-well plates (Corning). After an overnight protein binding incubation at 4° C., lysates are aspirated and wells are blocked for 1 h at 37° C. in TBST supplemented with 5% BSA. Plates are incubated with the primary antibodies anti-phospho-Tyrosine (Millipore, 4G10) diluted 1/15000 in TBST supplemented with 5% BSA for 1 h at room temperature. Plates are washed 3 times on a plate washer (SkanWasher, Molecular Devises), and incubated with the reporter antibody […] (Sigma) diluted 1/15000 in TBST supplemented with 5% BSA, for 1 h at room temperature. Plates are washed 3 times with TBST using on a plate washer and subsequently incubated with chemiluminescent substrate solution (ECL, Roche). Luminescence signal is captured on a Polar Star Optima apparatus (BMG LabTech).
Average values of the triplicate samples are used to prepare IC50 curves using a 4-parameter fit model. These curves are calculated using, for example, GraFit 5.0 software. For assay standardization purpose, an internal control is included on each experimental test plate.
(In general: ELISA stands for enzyme-linked immunosorbent assay.)

Assay [5] concerns A549 cells. As to the kind of experiment: Wound healing assay in A549 cells (HGF-stimulated). The assay is classed as cell-based. To be noted: Homo sapiens, last dose that inhibited gap closing by more than 25%, 24 h, read-out: A549 WOUND_HEALING IC50. On the procedure: Wound healing assay in A549 cells. A549 cells (ATCC) are seeded in DMEM low glucose medium complemented with 10% FBS into 24-well plates at a density of 7.5×10^4 cells/well and grown to confluence (48 h). Inhibitors were added to the medium at a range of doses (0.00032-10 uM) for 3 h at which point a gap is introduced by scraping cells with a P1000 pipette tip. Cells are then stimulated to migrate by the addition of HGF (in the form of conditioned medium from 293T cells over-expressing the human HGF gene) and the culture is continued for 24 h. […] For the purpose of standardization, a control is carried on every assay plates.

T2 sequence (P08581 25-1390): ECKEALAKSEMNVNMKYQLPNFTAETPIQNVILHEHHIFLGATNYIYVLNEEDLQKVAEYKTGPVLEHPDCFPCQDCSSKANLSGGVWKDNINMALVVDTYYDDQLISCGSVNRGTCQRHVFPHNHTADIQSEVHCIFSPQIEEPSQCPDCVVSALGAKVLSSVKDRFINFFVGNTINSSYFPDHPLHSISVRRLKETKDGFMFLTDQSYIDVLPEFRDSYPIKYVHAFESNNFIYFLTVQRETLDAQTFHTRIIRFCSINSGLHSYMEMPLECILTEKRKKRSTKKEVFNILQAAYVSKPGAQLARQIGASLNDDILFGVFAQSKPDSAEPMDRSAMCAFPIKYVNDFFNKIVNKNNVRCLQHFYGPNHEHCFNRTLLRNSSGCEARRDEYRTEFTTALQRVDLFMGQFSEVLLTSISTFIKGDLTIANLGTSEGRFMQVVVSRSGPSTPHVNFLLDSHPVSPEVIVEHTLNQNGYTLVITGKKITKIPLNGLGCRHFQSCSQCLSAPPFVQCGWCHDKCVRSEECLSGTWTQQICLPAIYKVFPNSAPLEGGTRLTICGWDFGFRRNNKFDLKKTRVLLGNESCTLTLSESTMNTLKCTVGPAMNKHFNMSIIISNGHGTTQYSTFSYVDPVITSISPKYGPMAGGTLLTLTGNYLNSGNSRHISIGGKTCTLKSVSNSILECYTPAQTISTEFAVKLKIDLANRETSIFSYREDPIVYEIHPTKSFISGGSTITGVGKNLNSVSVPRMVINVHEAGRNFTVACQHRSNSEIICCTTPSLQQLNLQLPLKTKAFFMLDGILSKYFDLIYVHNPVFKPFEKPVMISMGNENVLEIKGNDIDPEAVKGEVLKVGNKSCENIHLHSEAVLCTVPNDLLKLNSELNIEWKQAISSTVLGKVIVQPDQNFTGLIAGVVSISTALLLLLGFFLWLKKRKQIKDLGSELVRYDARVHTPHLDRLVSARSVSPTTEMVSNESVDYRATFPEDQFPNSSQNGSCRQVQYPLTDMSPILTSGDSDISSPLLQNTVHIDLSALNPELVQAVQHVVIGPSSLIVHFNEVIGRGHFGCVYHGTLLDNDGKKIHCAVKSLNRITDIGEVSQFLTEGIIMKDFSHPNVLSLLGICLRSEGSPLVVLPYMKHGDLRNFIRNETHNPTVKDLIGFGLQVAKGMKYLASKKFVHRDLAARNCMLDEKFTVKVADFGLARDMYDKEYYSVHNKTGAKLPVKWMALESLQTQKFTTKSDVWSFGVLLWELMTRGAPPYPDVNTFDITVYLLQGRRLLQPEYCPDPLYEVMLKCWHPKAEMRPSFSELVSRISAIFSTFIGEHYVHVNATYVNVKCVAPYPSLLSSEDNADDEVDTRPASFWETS
Sequence of recombinant human c-Met/HGF receptor (P08581 1078-1337): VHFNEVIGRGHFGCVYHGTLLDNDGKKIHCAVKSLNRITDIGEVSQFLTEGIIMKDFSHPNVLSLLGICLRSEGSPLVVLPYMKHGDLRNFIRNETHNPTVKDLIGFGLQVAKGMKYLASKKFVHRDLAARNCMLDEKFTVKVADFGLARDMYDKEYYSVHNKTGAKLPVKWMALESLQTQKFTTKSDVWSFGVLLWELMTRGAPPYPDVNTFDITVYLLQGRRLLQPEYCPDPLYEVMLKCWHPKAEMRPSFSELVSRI

For the compound `CS(=O)(=O)CCNCc1ccc(-c2cc3nccc(Oc4ccc(NC(=S)NC(=O)Cc5ccccc5)cc4F)c3s2)cc1`, the IC50 is 0.25 to 0.5 µM in assay [1]; below 0.25 µM in assay [2]; below 0.25 µM in assay [3]; below 0.25 µM in assay [4]; 0.25 to 0.5 µM in assay [5].

With `COCCNCc1ccc(-c2cc3nccc(Oc4ccc(NC(=O)C5(C(=O)Nc6ccccc6OC)CC5)cc4F)c3s2)cc1`, the half-maximal inhibitory concentration (IC50) in assay [1] is 0.25 to 0.5 µM; in assay [2] it was below 0.25 µM; in assay [3], below 0.25 µM; in assay [4], 0.5 to 1 µM; in assay [5], 0.25 to 0.5 µM.

Consider `COCCNCc1ccc(-c2cc3nccc(Oc4ccc(NC(=S)NC(=O)Cc5ccccc5)cc4F)c3s2)o1`, for which the IC50 in assay [1] is above 1 µM; in assay [2], below 0.25 µM; in assay [3] it was below 0.25 µM; in assay [4], below 0.25 µM; in assay [5], 0.25 to 0.5 µM.

Consider `COCCNCc1ccc(-c2cc3nccc(Oc4ccc(NC(=O)CC(=O)Nc5ccccc5)cc4F)c3s2)cc1`, for which the IC50 in assay [1] is 0.25 to 0.5 µM; in assay [2] it was below 0.25 µM; in assay [3] it was below 0.25 µM; in assay [4] it was 0.25 to 0.5 µM; in assay [5] it was 0.25 to 0.5 µM.

Regarding `COCCNCc1ccc(-c2cc3nccc(Oc4ccc(NC(=S)NC(=O)Cc5ccccc5OC)cc4F)c3s2)cc1`, the IC50 in assay [1] is 0.25 to 0.5 µM; in assay [2], below 0.25 µM; in assay [3], below 0.25 µM; in assay [4], below 0.25 µM; in assay [5], above 1 µM.

As for `COCCNCc1ccc(-c2cc3nccc(Oc4ccc(NC(=O)NC(=O)Cc5ccccc5OC)cc4F)c3s2)cc1`, the 50% inhibitory concentration (IC50) in assay [1] was above 1 µM; in assay [2] it was below 0.25 µM; in assay [3], below 0.25 µM; in assay [4] it was 0.5 to 1 µM; in assay [5] it was 0.5 to 1 µM.

As for `COCCNC(=O)c1ccc(-c2cc3nccc(Oc4ccc(NC(=S)NC(=O)Cc5ccccc5)cc4F)c3s2)cc1`, the IC50 was 0.25 to 0.5 µM in assay [1]; below 0.25 µM in assay [2]; below 0.25 µM in assay [3]; below 0.25 µM in assay [4]; above 1 µM in assay [5].

`COCCNCc1ccc(-c2cc3nccc(Oc4ccc(NC(=S)NC(=O)Cc5ccc(F)cc5)cc4F)c3s2)o1`: the IC50 is above 1 µM in assay [1]; below 0.25 µM in assay [2]; below 0.25 µM in assay [3]; below 0.25 µM in assay [4]; above 1 µM in assay [5].

`CN(C)CCOC(=O)N1CC=C(c2cc3nccc(Oc4ccc(NC(=S)NC(=O)Cc5ccccc5)cc4F)c3s2)CC1`: the half-inhibitory concentration (IC50) in assay [1], in assay [2], in assay [3], in assay [4] and in assay [5] was below 0.25 µM each time.

Regarding `CN(C)CCOC(=O)N1CC=C(c2cc3nccc(Oc4ccc(NC(=O)CC(=O)N(C)c5ccccc5)cc4F)c3s2)CC1`, the 50% inhibitory concentration (IC50) was 0.25 to 0.5 µM in assay [1]; below 0.25 µM in assay [2]; below 0.25 µM in assay [3]; below 0.25 µM in assay [4]; above 1 µM in assay [5].

As to `CSCCNCc1ccc(-c2cc3nccc(Oc4ccc(NC(=S)NC(=O)Cc5ccccc5)cc4F)c3s2)cc1`, the concentration for half-maximal inhibition (IC50) in assay [1] is 0.25 to 0.5 µM; in assay [2] it was below 0.25 µM; in assay [3], below 0.25 µM; in assay [4] it was below 0.25 µM; in assay [5], 0.25 to 0.5 µM.

Regarding `CSCCNCc1ccc(-c2cc3nccc(Oc4ccc(NC(=S)NC(=O)Cc5ccc(F)cc5)cc4F)c3s2)cc1`, the half-maximal inhibitory concentration (IC50) in assay [1] was 0.25 to 0.5 µM; in assay [2], below 0.25 µM; in assay [3], below 0.25 µM; in assay [4], below 0.25 µM; in assay [5] it was above 1 µM.

In the case of `COCCNCc1ccc(-c2cc3nccc(Oc4ccc(NC(=S)NC(=O)Cc5ccccc5)cc4F)c3s2)s1`, the 50% inhibitory concentration (IC50) is 0.25 to 0.5 µM in assay [1]; below 0.25 µM in assay [2]; below 0.25 µM in assay [3]; below 0.25 µM in assay [4]; above 1 µM in assay [5].

On to `COC[C@H](C)NCc1ccc(-c2cc3nccc(Oc4ccc(NC(=O)C5(C(=O)Nc6ccccc6)CC5)cc4F)c3s2)cc1`, for which the IC50 in assay [1], in assay [2], in assay [3], in assay [4] and in assay [5] was below 0.25 µM each time.

Consider `COCCNCCc1cccc(-c2cc3nccc(Oc4ccc(NC(=S)NC(=O)Cc5ccc(F)cc5)cc4F)c3s2)c1`, for which the half-maximal inhibitory concentration (IC50) in assay [1] is below 0.25 µM; in assay [2] it was below 0.25 µM; in assay [3], below 0.25 µM; in assay [4] it was below 0.25 µM; in assay [5], 0.25 to 0.5 µM.

On to `COCCNCCn1cnc(-c2cc3nccc(Oc4ccc(NC(=S)NC(=O)Cc5ccccc5)cc4F)c3s2)c1`, for which the 50% inhibitory concentration (IC50) in assay [1], in assay [2], in assay [3], in assay [4] and in assay [5] was below 0.25 µM throughout.

Turning to `COCCNCCc1cccc(-c2cc3nccc(Oc4ccc(NC(=O)C5(C(=O)Nc6ccccc6)CC5)cc4F)c3s2)c1`, the IC50 in assay [1], in assay [2], in assay [3], in assay [4] and in assay [5] was below 0.25 µM in each case.

For `COCCNCc1cccc(-c2cc3nccc(Oc4ccc(NC(=S)NC(=O)Cc5ccccc5)cc4F)c3s2)n1`, the half-inhibitory concentration (IC50) in assay [1], in assay [2], in assay [3], in assay [4] and in assay [5] was below 0.25 µM throughout.
